Source: ChEMBL document CHEMBL6114950, “Diamino variants of piperazine-based tissue transglutaminase inhibitors” (Bioorg Med Chem Lett, 2025)
The source made the active and inactive calls. The rule behind the calls is not given here.

Columns and labels:
[1] = biological target: T1, Protein-glutamine gamma-glutamyltransferase (Homo sapiens, UniProt P21980); assay: Irreversible inhibition of recombinant human TG2 assessed as inhibition constant using Cbz-Glu(gamma-p-nitrophenyl ester)Gly as a substrate by continuous colorimetric assay
T1 sequence (P21980 whole entry): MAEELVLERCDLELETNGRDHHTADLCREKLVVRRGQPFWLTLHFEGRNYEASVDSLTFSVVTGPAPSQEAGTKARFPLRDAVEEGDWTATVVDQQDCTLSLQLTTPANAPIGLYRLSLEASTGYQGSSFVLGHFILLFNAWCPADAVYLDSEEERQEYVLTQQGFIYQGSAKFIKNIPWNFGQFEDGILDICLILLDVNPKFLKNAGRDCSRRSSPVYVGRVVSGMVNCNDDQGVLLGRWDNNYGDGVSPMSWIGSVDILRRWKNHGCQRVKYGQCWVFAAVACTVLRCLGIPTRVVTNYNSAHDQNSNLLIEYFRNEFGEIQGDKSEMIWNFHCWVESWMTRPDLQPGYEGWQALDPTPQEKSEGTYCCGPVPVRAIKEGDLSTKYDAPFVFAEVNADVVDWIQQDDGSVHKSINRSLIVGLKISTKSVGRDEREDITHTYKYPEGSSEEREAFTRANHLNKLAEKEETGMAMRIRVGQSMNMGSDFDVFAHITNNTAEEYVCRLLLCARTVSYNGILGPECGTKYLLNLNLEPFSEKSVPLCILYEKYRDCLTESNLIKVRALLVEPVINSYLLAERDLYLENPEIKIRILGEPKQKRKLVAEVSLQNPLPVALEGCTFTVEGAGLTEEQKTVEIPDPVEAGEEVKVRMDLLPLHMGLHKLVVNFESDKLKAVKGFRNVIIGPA

[2] = biological target: T2, Protein-glutamine gamma-glutamyltransferase (Homo sapiens) (UniProt P21980)
T2 sequence (whole entry): T1 sequence (P21980 whole entry)
Description: Irreversible inhibition of recombinant human TG2 assessed as inactivation constant using Cbz-Glu(gamma-p-nitrophenyl ester)Gly as a substrate by continuous colorimetric assay

[3] = biological target: T2, Protein-glutamine gamma-glutamyltransferase (Homo sapiens); assay: Irreversible inhibition of recombinant human TG2 assessed as inhibition constant using Cbz-Glu(gamma-p-nitrophenyl ester)Gly as a substrate at upto 100 uM by continuous colorimetric assay
[4] = biological target: T2, Protein-glutamine gamma-glutamyltransferase (Homo sapiens); assay: Irreversible inhibition of recombinant human TG2 assessed as inactivation constant using Cbz-Glu(gamma-p-nitrophenyl ester)Gly as a substrate at upto 100 uM by continuous colorimetric assay
[5] = biological target: T2, Protein-glutamine gamma-glutamyltransferase (Homo sapiens); assay: Irreversible inhibition of recombinant human TG2 assessed as Kinact/Ki using Cbz-Glu(gamma-p-nitrophenyl ester)Gly as a substrate at upto 100 uM by continuous colorimetric assay
[6] = Apparent permeability across apical to basolateral side in […] cells; type: ADME, cell-based, Canis lupus familiaris; details: dog, MDCK-MDR1
[7] = Apparent permeability across basolateral to apical side in […] cells; type: ADME, cell-based, Canis lupus familiaris; details: dog, MDCK-MDR1
[8] = Efflux ratio of apparent permeability in MDCK-MDR1 cells; type: ADME, cell-based, Canis lupus familiaris; details: dog

Ki [1] | Kinact [2] | inhibition constant (Ki) [3] | inactivation constant (kinact) [4] | kinact/Ki [5] | Papp A→B [6] | Papp B→A [7] | efflux ratio [8] | Compound
112 µM | 0.72 min⁻¹ | – | – | – | – | – | – | C=CC(=O)NCC(=O)N1CCC2(CC1)CCN(C(=O)C13CC4CC(CC(C4)C1)C3)C2
– | – | inactive | inactive | inactive | – | – | – | C=CC(=O)NCC(=O)N1CCC2(CC1)CCN(C(=O)C13CC4CC(CC(C4)C1)C3)CC2
– | – | inactive | inactive | inactive | – | – | – | C=CC(=O)NCC(=O)NCCCNC(=O)C12CC3CC(CC(C3)C1)C2
115 µM | 0.67 min⁻¹ | – | – | – | – | – | – | C=CC(=O)NCC(=O)N1CCC[C@@H](NC(=O)C23CC4CC(CC(C4)C2)C3)C1
– | – | inactive | inactive | inactive | – | – | – | C=CC(=O)NCC(=O)NCCNC(=O)C12CC3CC(CC(C3)C1)C2
– | – | inactive | inactive | inactive | – | – | – | C=CC(=O)NCC(=O)NC1CN(C(=O)C23CC4CC(CC(C4)C2)C3)C1

Second part, the molecule before the results:

Compound | Ki [1] | Kinact [2] | inhibition constant (Ki) [3] | inactivation constant (kinact) [4] | kinact/Ki [5] | Papp A→B [6] | Papp B→A [7] | efflux ratio [8]
C=CC(=O)NCC(=O)NCCCCCNC(=O)C12CC3CC(CC(C3)C1)C2 | – | – | inactive | inactive | inactive | – | – | –
C=CC(=O)N(C)CC(=O)N1CCN(C(=O)C23CC4CC(CC(C4)C2)C3)CC1 | – | – | – | – | – | 19.7 ×10⁻⁶ cm/s | 39 ×10⁻⁶ cm/s | –
C=CC(=O)NCC(=O)NC1CCC(NC(=O)C23CC4CC(CC(C4)C2)C3)CC1 (configuration not stated) | – | – | inactive | inactive | inactive | – | – | –
C=CC(=O)NCC(=O)N1CC2(CCN(C(=O)C34CC5CC(CC(C5)C3)C4)CC2)C1 | – | – | inactive | inactive | inactive | – | – | –
C=CC(=O)NCC(=O)N1CCN(C(=O)C23CC4CC(CC(C4)C2)C3)CC1 | 2.82 µM | 1.5 min⁻¹ | – | – | – | 27.2 ×10⁻⁶ cm/s | 34.3 ×10⁻⁶ cm/s | 1.27
